# Measurements: patent publication US20050130906A1, “Amelioration of macular degeneration and other ophthalmic diseases” (priority 2003, published 2005)
# Experiments:
# [1] = test system: blue light-illuminated A2E-laden RPE (ARPE-19 cells); test: Protection against A2E-mediated blue light damage (MTT assay and two-color fluorescence cell death assay); assay type: cell-based
# Description: The ability of Tempol-H to protect against A2E-mediated blue light damage was examined.
# Materials and Methods: ARPE-19 cells that have accumulated A2E in culture were exposed to 430±20 nm light delivered from a halogen source. This wavelength of light is relevant since (i) the excitation maximum of A2E is approximately 430 nm, and (ii) light of this wavelength reaches the RPE in vivo while light of wavelengths longer than 400 nm are not absorbed by the cornea and lens. Cell death in blue light-illuminated A2E-laden RPE was compared with and without pre-treatment (24 hours) with Tempol-H. The loss of cell viability was quantified by: • 1. A calorimetric microtiter assay based on ability of healthy metabolically active cells to cleave the yellow tetrazolium salt MTT to purple formazan crystals. Cell viability was assessed 24 hours after blue light illumination. Triplicate wells were assayed in each of 2 experiments.
# 2. Two-color fluorescence assay in which the nuclei of all dead cells appear red due to staining by a membrane-impermeant dye (Dead Red nuclei acid stain, Molecular Probes) with the nuclei of all cells stained blue with DAPI. Cell viability was assessed 8 hours after blue light illumination. Replicates were assayed by counting cells within 5 microscopic fields within the area of illumination in each well and 3 wells were assayed per experiment. Data are based on 3 experiments.
# lens epithelial cells = conditions: Mitchell et al. 1991; Krishna et al. 1991; cited from earlier work
# cataract = conditions: Zigler et al., U.S. Pat. No. 6,001,853; cited from earlier work
# [2] = test system: retinal S-antigen-induced experimental autoimmune uveoretinitis (EAU); conditions: rat model, after systemic injection; Zamir et al. 1999; cited from earlier work
SMILES,"protection of blue light-illuminated A2E-laden RPE cells ([1]; 1 mM, FIG. 2)","protection against the death of A2E-laden RPE ([1]; blue light 430±20 nm, 24 hours pre-treatment, FIG. 1 and FIG. 2)","protection of blue light illuminated A2E-laden RPE cells ([1]; various concentrations, FIG. 1)",protection of lens epithelial cells from oxidative damage (lens epithelial cells),anti-cataractogenic activity compared with the corresponding nitroxide (cataract),severity of EAU [2]
CC1(C)CC(O)CC(C)(C)N1O [Tempol-H],protection,dose-dependent protection,protect,afforded no such protection,better anti-cataractogenic composition than the corresponding nitroxide,–
"CC1(C)CC(O)CC(C)(C)N1[O] [tempol, 4-hydroxy-2,2,6,6,-tetramethylpiperidine-1-N-oxyl]",–,–,–,–,–,reduced the severity
